Active and inactive are the calls of the source.
Experiments:
[1] = biological target: T1, Ubiquitin-conjugating enzyme E2 N (Homo sapiens, UniProt P61088); type: functional;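 also: Dose-response confirmation in a TR-FRET assay detecting UBC13-driven polyubiquitin chain formation, inhibition measured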
T1 sequence (P61088 whole entry): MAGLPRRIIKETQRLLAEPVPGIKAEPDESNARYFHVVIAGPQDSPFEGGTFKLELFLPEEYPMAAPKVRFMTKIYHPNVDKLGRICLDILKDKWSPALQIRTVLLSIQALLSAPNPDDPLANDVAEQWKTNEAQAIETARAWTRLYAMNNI

[2] = biological target: T2, Corticotropin-releasing factor receptor 2/Corticotropin-releasing factor-binding protein (Homo sapiens, UniProt P24387+Q13324); test: Dose Response confirmation of uHTS hits for small molecule antagonists of the CRF-binding protein and CRF-R2 receptor complex.; type: functional; details: read-out: IC50_Mean
T2 sequence (Q13324 whole entry): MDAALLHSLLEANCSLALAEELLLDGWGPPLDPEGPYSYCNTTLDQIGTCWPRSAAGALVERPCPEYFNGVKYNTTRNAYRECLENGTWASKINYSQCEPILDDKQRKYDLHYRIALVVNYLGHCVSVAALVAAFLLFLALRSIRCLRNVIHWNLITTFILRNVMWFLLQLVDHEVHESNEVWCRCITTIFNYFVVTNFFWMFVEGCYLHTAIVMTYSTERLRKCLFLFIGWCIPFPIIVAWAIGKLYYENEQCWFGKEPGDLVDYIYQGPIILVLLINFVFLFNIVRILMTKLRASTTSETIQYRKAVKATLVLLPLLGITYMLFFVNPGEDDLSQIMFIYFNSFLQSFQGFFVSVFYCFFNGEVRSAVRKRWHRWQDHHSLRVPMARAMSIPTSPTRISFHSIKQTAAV
T2 sequence (P24387 whole entry): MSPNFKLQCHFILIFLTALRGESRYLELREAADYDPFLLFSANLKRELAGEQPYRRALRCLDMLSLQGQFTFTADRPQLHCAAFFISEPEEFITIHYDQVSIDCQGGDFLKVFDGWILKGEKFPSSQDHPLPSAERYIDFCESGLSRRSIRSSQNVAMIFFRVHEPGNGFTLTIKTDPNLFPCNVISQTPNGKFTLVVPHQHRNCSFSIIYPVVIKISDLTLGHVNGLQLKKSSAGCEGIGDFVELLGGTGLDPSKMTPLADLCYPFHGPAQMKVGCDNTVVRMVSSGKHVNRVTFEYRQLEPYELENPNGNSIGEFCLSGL

[3] = biological target: T2, Corticotropin-releasing factor receptor 2/Corticotropin-releasing factor-binding protein; test: activators of CRF receptor 2 with binding protein – uHTS hits, confirmation (AID 602473); type: functional; details: read-out: EC50_Mean
[4] = CRF-BP/CRF-R2 complex antagonists, dose response, cell-based, uHTS hits, 384-well (AID 651639); type: functional, Homo sapiens; details: read-out: IC50_Mean
[5] = biological target: T3, DNA repair protein RAD52 homolog (Homo sapiens, UniProt P43351); type: functional, biochemical
T3 sequence (P43351 whole entry): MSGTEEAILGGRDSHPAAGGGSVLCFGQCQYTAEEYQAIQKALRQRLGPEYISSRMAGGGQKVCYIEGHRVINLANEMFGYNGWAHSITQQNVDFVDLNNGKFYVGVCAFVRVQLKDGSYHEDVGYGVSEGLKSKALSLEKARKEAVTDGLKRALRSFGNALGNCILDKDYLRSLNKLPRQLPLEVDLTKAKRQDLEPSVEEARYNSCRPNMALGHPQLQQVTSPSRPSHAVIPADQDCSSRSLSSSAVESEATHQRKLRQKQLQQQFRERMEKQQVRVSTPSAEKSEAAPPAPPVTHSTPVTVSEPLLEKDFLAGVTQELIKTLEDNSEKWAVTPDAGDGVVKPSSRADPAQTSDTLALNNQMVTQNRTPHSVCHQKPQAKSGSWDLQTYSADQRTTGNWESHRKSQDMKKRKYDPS

Galanin receptor type 3 = biological target: T4, Galanin receptor type 3 (Homo sapiens, UniProt O60755); test: Fluorescence-based cell-based primary high throughput dose response assay to identify antagonists of the Galanin Receptor 3 (GalR3).; type: functional
T4 sequence (O60755 whole entry): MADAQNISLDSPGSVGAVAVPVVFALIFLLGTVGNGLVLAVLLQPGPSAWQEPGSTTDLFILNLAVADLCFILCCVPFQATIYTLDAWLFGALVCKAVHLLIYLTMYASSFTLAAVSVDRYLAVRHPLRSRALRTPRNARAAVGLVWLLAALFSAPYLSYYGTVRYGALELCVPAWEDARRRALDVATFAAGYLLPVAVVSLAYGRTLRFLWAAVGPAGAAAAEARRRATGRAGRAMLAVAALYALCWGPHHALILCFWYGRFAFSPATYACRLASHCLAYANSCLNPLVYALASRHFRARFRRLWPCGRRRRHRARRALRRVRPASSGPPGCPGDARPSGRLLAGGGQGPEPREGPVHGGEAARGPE

cells = type: functional, cell-based; details: HEK-CNG
[6] = HepG2 cell cytotoxicity, dose response, cytotoxicity control, plate reader, cherry-pick, antagonist series (AID 743416); type: functional, cell-based
[7] = LGR2 antagonists, dose response, cell-based, HEK293, CRE-luciferase reporter, cherry pick, set 2 (AID 743343); type: functional;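 also: transfected cells were stimulated with diluted bursicon conditioned medium after compound addition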
[8] = MC4R antagonists, dose response, counter-screen for LGR2 antagonist project, cell-based, plate reader, cherry pick (AID 743444); type: functional;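 also: transfected HEK 293 cells stimulated with alpha-MSH peptide; potency of inhibitors of the alpha-MSH evoked signal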
[9] = biological target: T5, Carboxy-terminal domain RNA polymerase II polypeptide A small phosphatase 1 (Homo sapiens, UniProt Q9GZU7); test: inhibitors of CTDSP1, concentration-response testing, biochemical assay, absorbance-based, actives from ultra-high-throughput screening (AID 540297); type: functional
T5 sequence (Q9GZU7 whole entry): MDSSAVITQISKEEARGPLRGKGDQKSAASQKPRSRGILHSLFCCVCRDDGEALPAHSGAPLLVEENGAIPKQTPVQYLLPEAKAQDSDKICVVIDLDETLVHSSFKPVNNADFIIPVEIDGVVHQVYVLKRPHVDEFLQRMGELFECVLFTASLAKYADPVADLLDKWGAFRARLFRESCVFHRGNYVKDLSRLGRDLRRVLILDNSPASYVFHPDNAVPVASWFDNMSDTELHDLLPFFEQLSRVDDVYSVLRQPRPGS

Vero = test: cells; type: functional; details: Chlorocebus sabaeus
[10] = biological target: Photoreceptor-specific nuclear receptor (Homo sapiens, UniProt Q9Y5X4); type: functional, cell-based;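 also: CHO-S cells with Gal4-NCOR and VP16-NR2E3 two-hybrid luciferase reporter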
[11] = biological target: T6, Heat shock factor protein 1 (Mus musculus, UniProt P38532); test: inhibition of MG132-induced HSE-luciferase signal, confirmation, cell-based, NIH3T3, luminescence, dose retest (AID 2382); type: functional;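 also: NIH3T3 fibroblasts with HSF1-driven luciferase reporter stressed by proteasome inhibitor MG132; luminescence from HSF1-driven luciferase expression after 8 hours of MG132 stress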
T6 sequence (P38532 whole entry): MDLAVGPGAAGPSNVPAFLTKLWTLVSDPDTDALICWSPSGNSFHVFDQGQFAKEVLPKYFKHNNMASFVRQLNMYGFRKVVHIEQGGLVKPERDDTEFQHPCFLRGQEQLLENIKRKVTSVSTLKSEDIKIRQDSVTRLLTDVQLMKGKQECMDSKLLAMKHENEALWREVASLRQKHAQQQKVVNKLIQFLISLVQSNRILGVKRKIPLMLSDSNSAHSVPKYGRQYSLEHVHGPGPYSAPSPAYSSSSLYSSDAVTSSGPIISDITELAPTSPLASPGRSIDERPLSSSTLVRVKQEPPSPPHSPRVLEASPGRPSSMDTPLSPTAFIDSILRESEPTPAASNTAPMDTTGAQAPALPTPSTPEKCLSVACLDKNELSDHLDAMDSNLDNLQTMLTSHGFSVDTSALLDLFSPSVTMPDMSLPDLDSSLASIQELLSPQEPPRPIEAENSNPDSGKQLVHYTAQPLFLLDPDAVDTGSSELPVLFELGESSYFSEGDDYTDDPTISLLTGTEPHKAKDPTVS

HEK293 = test: inhibitors of LMP1-driven NF-kB reporter, dose response, cell-based, HEK293, luciferase, cherry-pick (AID 588343); type: functional; details: Homo sapiens
[12] = A549 cell cytotoxicity, dose response, cytotoxicity control, plate reader, cherry-pick, antagonist series (AID 743412); type: functional, cell-based

Photoreceptor-specific nuclear receptor, sequence (Q9Y5X4 whole entry, the tested form may be a part): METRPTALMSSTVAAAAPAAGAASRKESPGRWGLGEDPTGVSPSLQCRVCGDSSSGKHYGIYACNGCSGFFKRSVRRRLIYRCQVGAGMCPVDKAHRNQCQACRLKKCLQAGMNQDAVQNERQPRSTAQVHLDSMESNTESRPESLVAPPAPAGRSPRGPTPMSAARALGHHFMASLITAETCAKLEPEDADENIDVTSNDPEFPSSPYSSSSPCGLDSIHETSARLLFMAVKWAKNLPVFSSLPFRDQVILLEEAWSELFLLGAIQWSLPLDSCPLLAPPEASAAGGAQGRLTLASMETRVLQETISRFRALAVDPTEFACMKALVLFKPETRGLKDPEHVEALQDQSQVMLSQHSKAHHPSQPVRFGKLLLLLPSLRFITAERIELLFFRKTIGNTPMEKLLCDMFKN

SMILES: CC[C@@H](C)[C@@H]1CN([C@@H](CN2CCC[C@H]2CN2C(N)=NC[C@H]2CC(C)C)C(C)C)C(=N)N1CCc1ccc(Cl)c(Cl)c1
- IC50 [1]: > 20 µM (inactive)
- IC50 [2]: 2.82 µM (active)
- EC50 [3]: 42.3 µM (active)
- IC50 [4]: 7.1 µM (active)
- AC50 [5]: 17.3 µM (active)

SMILES: CSc1ccc(C(=O)C2CCCN(C(=O)CCc3c(C)nn(C)c3C)C2)cc1 (centres undefined)
- IC50 (Galanin receptor type 3): 1.15 µM (active)
- EC50 (cells): > 29.9 µM (inactive)

SMILES: Cc1csc(NC(=O)c2cnc3ccccc3n2)n1
- AC50 [6]: > 52 µM (inactive)
- AC50 [7]: 7.51 µM (active)
- AC50 [8]: 16.9 µM (active)

SMILES: FC(F)(F)c1ccccc1Cc1c(-c2ccco2)nc2c3ccccc3ccn12
- IC50 (Galanin receptor type 3): 13 µM (inactive)
- EC50 (cells): > 29.9 µM (inactive)

SMILES: O=C(CNC(=O)c1cccc(OC(F)F)c1)OCc1cc(=O)n2cc(Br)ccc2n1
- IC50 [9]: 7.09 µM (active)

SMILES: CN(C(=O)Oc1ccc(C(=O)c2ccc(Cl)cc2)cc1)c1ccccc1
- IC50 [2]: < 0.368 µM (active)
- EC50 [3]: > 53 µM (inactive)
- IC50 [4]: > 20 µM (inactive)

SMILES: CCc1cc(OCCCSc2nc(C)cc(O)n2)ccc1Cl
- CC50 (Vero): 2.36 µM (active)
- IC50 [10]: 3.02 µM (active)

SMILES: CCOC(=O)c1cc2c(=O)n3cccc(C)c3nc2n(Cc2ccco2)/c1=N/C(=O)c1cccnc1
- IC50 [9]: 18.8 µM (active)

SMILES: CC(C)(C)c1ccc(Cn2c(=O)cnc3ccccc32)cc1
- EC50 [11]: 2.27 µM (active)
- AC50 (HEK293): 6.93 µM (active)
- AC50 [12]: 12.6 µM (active)
- AC50 [6]: 29.4 µM (active)
- AC50 [7]: 38 µM (active)

SMILES: Fc1ccccc1CSc1nnnn1-c1ccc2c(c1)OCO2
- IC50 [2]: 15.6 µM (active)
- EC50 [3]: > 53 µM (inactive)
- IC50 [4]: > 20 µM (inactive)

SMILES: C=CCC1(CC=C)CCCN1C(=O)c1cc(COc2cncc(Cl)c2)on1
- IC50 (Galanin receptor type 3): > 1.11 µM (active)
- EC50 (cells): > 29.9 µM (inactive)

Source: ChEMBL document CHEMBL1201862, “PubChem BioAssay data set” (2004)
